Measurements: publication PMC12846068, “Insights into Transport Function of the Murine Organic Anion-Transporting Polypeptide OATP1B2 by Comparison with Its Rat and Human Orthologues” (Toxics, 2025)

How the values were obtained:
[1] = molecular target: T1, mOATP1B2 (Mus musculus, UniProt Q9JJL3); assay: mOATP1B2-mediated uptake of [3H]-E1S and [3H]-TCA in overexpressing HEK293 cells; format: cell-based
T1 construct: The full-length mOATP1B2 and rOATP1B2 consist of 689 and 678 amino acids
T1 sequence (Q9JJL3 1-689): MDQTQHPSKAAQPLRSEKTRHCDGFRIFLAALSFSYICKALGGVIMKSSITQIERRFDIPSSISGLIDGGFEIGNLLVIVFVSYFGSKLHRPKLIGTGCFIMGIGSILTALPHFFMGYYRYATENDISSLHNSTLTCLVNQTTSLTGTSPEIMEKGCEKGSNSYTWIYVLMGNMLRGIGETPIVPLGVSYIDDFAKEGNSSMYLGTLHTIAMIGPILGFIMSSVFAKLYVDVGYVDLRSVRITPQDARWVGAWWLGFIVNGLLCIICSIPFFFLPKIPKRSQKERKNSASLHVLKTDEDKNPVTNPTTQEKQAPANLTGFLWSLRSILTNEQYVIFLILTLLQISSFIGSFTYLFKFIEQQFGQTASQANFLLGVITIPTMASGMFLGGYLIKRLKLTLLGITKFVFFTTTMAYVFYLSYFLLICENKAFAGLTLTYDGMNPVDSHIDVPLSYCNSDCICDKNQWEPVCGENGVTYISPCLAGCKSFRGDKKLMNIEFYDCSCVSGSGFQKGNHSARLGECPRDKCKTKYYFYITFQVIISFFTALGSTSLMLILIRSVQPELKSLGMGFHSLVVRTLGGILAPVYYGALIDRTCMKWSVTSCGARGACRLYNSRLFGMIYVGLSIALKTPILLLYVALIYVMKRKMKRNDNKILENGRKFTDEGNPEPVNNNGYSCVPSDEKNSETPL
Procedure: (§1) To perform transporter-mediated uptake, both stably transfected cells and control cells (seeding density 2 × 10^5) were cultured for three days in 24-well plates (coated with 0.1 mg/mL poly-D-lysine hydrobromide). Then, 24 h before the start of the transport experiment, the gene expression of mOapt1b2 and rOATP1B2 was induced by 1 µg/mL tetracycline. At the beginning of each experiment, the cells were washed three times with pre-warmed 0.5 mL HBSS incubation buffer (supplemented with 20 mM HEPES, pH 7.4) and equilibrated for at least 20 min as described previously [27]. After aspirating the incubation buffer, the uptake process was started by adding 200 µL HBSS incubation buffer containing radio-labeled and unlabeled substances to each well and incubated at 37 °C for an appropriate time. The uptake was stopped by aspirating the reaction mixture and washing the cells 3 times with 0.4 mL ice-cold PBS buffer. After cell lysis with 0.6 mL of 1N NaOH overnight, the whole content of each well (0.6 mL) was transferred to a 6 mL scintillation vial (Sarstedt) containing 2.5 mL scintillation liquid (Rotiszint®eco plus, Carl Roth). The ^3H content was measured in a scintillation counter (Perkin Elmer TRICarb 2810 or HIDEX 600SL). […]
(§2) The absolute amount (pmol) of the radio-labeled probe substrate uptake was calculated and related to the determined protein values as well as the incubation time. […]

[2] = molecular target: T2, rOATP1B2 (Rattus norvegicus, UniProt Q9QZX8); assay: rOATP1B2-mediated uptake of [3H]-E1S and [3H]-TCA in overexpressing HEK293 cells; format: cell-based; details: rOATP1B2, 1 µM substrate; E1S 5 min, TCA 10 min
T2 construct: The full-length mOATP1B2 and rOATP1B2 consist of 689 and 678 amino acids
T2 sequence (Q9QZX8 1-687): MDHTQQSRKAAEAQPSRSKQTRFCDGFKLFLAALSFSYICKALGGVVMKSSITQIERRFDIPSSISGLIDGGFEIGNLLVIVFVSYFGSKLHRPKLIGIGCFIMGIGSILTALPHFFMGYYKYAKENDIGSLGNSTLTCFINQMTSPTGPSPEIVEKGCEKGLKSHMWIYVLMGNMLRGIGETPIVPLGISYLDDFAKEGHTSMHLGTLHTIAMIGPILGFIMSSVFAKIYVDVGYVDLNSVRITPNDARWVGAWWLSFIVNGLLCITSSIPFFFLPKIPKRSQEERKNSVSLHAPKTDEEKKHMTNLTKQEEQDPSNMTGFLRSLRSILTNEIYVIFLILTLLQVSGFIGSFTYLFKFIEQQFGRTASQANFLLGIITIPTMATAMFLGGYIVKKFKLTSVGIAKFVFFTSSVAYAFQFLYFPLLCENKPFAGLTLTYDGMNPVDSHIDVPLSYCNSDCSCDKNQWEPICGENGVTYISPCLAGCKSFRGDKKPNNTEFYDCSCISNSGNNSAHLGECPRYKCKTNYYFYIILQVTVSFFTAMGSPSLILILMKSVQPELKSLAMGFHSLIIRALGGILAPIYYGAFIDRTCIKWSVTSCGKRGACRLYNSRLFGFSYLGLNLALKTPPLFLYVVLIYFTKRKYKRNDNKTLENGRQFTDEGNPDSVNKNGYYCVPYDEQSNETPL
Procedure: as §1, §2

[3] = molecular target: T3, hOATP1B3 (Homo sapiens, UniProt Q9NPD5); assay: hOATP1B3-mediated uptake of [3H]-E1S and [3H]-TCA in transfected HEK293 cells
T3 sequence (Q9NPD5 1-702): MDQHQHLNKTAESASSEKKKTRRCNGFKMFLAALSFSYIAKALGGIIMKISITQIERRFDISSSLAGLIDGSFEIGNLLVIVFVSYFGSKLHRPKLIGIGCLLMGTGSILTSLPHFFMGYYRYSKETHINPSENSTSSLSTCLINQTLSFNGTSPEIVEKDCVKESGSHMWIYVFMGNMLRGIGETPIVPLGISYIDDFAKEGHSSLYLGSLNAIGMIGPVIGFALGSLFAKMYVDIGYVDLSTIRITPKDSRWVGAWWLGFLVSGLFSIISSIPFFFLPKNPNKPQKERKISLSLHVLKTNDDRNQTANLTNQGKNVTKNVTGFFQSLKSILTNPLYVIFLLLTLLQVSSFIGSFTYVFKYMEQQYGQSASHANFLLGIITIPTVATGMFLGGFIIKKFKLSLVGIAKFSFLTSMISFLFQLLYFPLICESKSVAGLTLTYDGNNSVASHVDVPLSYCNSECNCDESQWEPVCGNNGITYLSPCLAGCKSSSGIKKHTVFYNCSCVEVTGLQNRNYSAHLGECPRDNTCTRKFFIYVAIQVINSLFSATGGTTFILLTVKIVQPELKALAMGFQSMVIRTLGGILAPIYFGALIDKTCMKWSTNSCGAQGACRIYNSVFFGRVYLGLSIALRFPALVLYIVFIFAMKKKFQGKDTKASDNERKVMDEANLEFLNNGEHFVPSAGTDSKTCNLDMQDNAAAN
Procedure: To perform transporter-mediated uptake, both stably transfected cells and control cells (seeding density 2 × 10^5) were cultured for three days in 24-well plates (coated with 0.1 mg/mL poly-D-lysine hydrobromide). Then, 24 h before the start of the transport experiment, the gene expression of mOapt1b2 and rOATP1B2 was induced by 1 µg/mL tetracycline. At the beginning of each experiment, the cells were washed three times with pre-warmed 0.5 mL HBSS incubation buffer (supplemented with 20 mM HEPES, pH 7.4) and equilibrated for at least 20 min as described previously [27]. After aspirating the incubation buffer, the uptake process was started by adding 200 µL HBSS incubation buffer containing radio-labeled and unlabeled substances to each well and incubated at 37 °C for an appropriate time. The uptake was stopped by aspirating the reaction mixture and washing the cells 3 times with 0.4 mL ice-cold PBS buffer. After cell lysis with 0.6 mL of 1N NaOH overnight, the whole content of each well (0.6 mL) was transferred to a 6 mL scintillation vial (Sarstedt) containing 2.5 mL scintillation liquid (Rotiszint®eco plus, Carl Roth). The ^3H content was measured in a scintillation counter (Perkin Elmer TRICarb 2810 or HIDEX 600SL).
To verify the results for the human transporters, both substrates were tested at a concentration of 0.01 µM. All experiments were conducted at least on two separate days as triplicates.
The absolute amount (pmol) of the radio-labeled probe substrate uptake was calculated and related to the determined protein values as well as the incubation time. The transporter-mediated uptake rate (net uptake) was obtained by subtracting the uptake rate in control (vector only)-transfected HEK293 cells from the uptake rate in transporter-transfected cells. To calculate the Km of the respective substrate, the transporter-mediated net uptake (pmol/mg protein/min) was plotted against the substrate concentrations in SigmaPlot 13. Weighted nonlinear regression was used for curve fitting (ligand binding with one site saturation).

C[C@H](CCC(=O)NCCS(=O)(=O)O)[C@H]1CC[C@H]2[C@@H]3[C@H](O)C[C@@H]4C[C@H](O)CC[C@]4(C)[C@H]3C[C@H](O)[C@]12C [TCA, taurocholate]
uptake compared to vector-transfected control cells ([1]; mOATP1B2, 1 µM substrate, E1S 5 min, TCA 10 min): more than 100 fold | affinity of mOATP1B2 lower than that of rOATP1B2 ([1]; ratio of Km values mOATP1B2/rOATP1B2): 4.6 fold | uptake compared to vector-transfected control cells [2]: > 70 fold | uptake compared to vector-transfected control cells ([3]; hOATP1B3, 0.01 µM substrate): 2.7 fold | uptake over control cells / substrate status ([3]; hOATP1B3, substrate concentration not stated at the place): 2-3 fold | Km at 10 min ([3]; human, pH 7.4): 21 ± 8 µM
